Results as given in patent publication US5053226A, “Monoclonal antibodies binding platinum complexes” (Board of Regents, The University of Texas System, priority 1987, dated 1991).

Columns and labels:
[1] = molecular target: monoclonal antibody from hybridoma 1C1 H2 A5; experiment: Competitive ELISA of platinum compounds for binding to 1C1 H2 A5 monoclonal antibody; parameters: species or system mouse; settings: for concentration of agent which decreased the antibody binding to 50% of control: MOAB 1C1 H2 A5, immobilized DACH Pt complex in microtiter wells
Procedure: A DACH Pt complex was immobilized on the surface of microtiter wells.
A DACH Pt complex was immobilized on the surface of microtiter wells, to which MOAB binding was measured.
A competitive ELISA assay using monoclonal antibody specific for platinum (II) complex was performed. Monoclonal antibody from hybridoma 1C1 H2 A5 was added to microtiter wells having an immobilized DACH Pt complex. The MOAB was added either with no free platinum complex (control) or with increasing amounts of free MIDP platinum complex. Additionally, three compounds (designated A, B and C), whose identities were best unknown at that time, were added in parallel to the MIDP competition study. As shown in FIG. 10 the competition of compound A was quite similar to that of MIDP. Compound B (FIG. 11) was less similar to MIDP and compound C (FIG. 12) was least like MIDP although still being inhibitory of MOAB binding. The concentration of each agent which decreased the antibody binding to 50% of control was: MIDP=lug; A=2ug; B=4ug and C=200ug.

[2] = in vivo; cited from earlier work
[3] = test system: human breast carcinoma cells (MCF-7); experiment: MTT assay; cytotoxicity on MCF-7 breast carcinoma cells; format: cell-based; settings: MCF-7, 72 hrs
Procedure: Eight thousand MCF-7 cells were seeded per well and an MTT dye viability test performed.
In order to determine whether the MIDP/MOAB complex retained antiproliferative activity against cells in culture, the antibody (2 mg) was incubated with 200 ug of MIDP platinum complex for 24 hrs. The MOAB/MIDP solution was then dialyzed for 4 hrs at 4° C. against phosphate-buffered saline (PBS). The dialysate was then analyzed for total platinum by atomic absorption spectrometry. The monoclonal antibody/MIDP complex was then added to human breast carcinoma cells (MCF-7) in concentrations between 0.01 and 10 ug Pt/ml. As a control on the same plates, MIDP was also added at equal platinum concentrations. At 72 hrs after treatment, the wells were assessed for viable cells by MTT assay.
**Cell survival was determined using the tetrazolium dyebinding method
(MTT) which dye reacts only with living cells.

B16 melanoma = settings: mice, multi-dose administration; cited from earlier work
[4] = test system: cells resistant to cisplatin; settings: cited from earlier work
L1210 leukemia = settings: mice, multi-dose administration; cited from earlier work

| amount needed to compete at a level with MIDP ([1]; relative to MIDP) | SMILES | concentration of agent which decreased the antibody binding to 50% of control [1] | binding to the antibody relative to compound C ([1]; relative to compound C) | renal toxicity [2] | Percent of Control Cell survival ([3]; MIDP concentration 0.019 ug/ml) | Percent of Control Cell survival ([3]; MIDP concentration 0.039 ug/ml) | Percent of Control Cell survival ([3]; MIDP concentration 0.078 ug/ml) | Percent of Control Cell survival ([3]; MIDP concentration 0.156 ug/ml) | Percent of Control Cell survival ([3]; MIDP concentration 0.312 ug/ml) | Percent of Control Cell survival ([3]; MIDP concentration 0.625 ug/ml) | Percent of Control Cell survival ([3]; MIDP concentration 1.25 ug/ml) | Percent of Control Cell survival ([3]; MIDP concentration 2.5 ug/ml) | Percent of Control Cell survival ([3]; MIDP concentration 5 ug/ml) | Percent of Control Cell survival ([3]; MIDP concentration 10 ug/ml) | concentration required for 50% inhibition of cell growth ([3]; MTT, platinum concentration) | treatment of B16 melanoma (B16 melanoma) | cross-resistance [4] | treatment of L1210 leukemia (L1210 leukemia) |
| --- | --- | --- | --- | --- | --- | --- | --- | --- | --- | --- | --- | --- | --- | --- | --- | --- | --- | --- |
| 100-200 times | N.N.O=C([O-])C1(C(=O)[O-])CCC1.[Pt+2] [Compound C, diamine Pt(II) 1,1-dicarboxylatocyclobutane] | 200 µg | – | – | – | – | – | – | – | – | – | – | – | – | – | – | – | – |
| – | NC1CCCCC1N.O=C([O-])C1(C(=O)[O-])CCC1.[Pt+2] [Compound B, DACH Pt(II) 1,1-dicarboxylatocyclobutane] | 4 µg | about 50 fold | – | – | – | – | – | – | – | – | – | – | – | – | – | – | – |
| – | CN(CC(=O)[O-])CC(=O)[O-].NC1CCCCC1N.[Pt+2] [MIDP, methylimino-diacetato-1,2-diaminocyclohexane platinum (II)] | 2 µg | – | does not induce renal toxicity | 86.9% | 84.3% | 72.4% | 45.5% | 32.3% | 17.0% | 18.5% | 15.2% | 10.8% | 8.3% | 0.15 µg/mL | curative | not to display cross-resistance | curative |
